The record followed here is EPA's ToxValDB 9.5 (doi:10.2903/j.efsa.2016.4554).

Series [1] relates to Folsomia candida. The following applies: chronic/long-term; duration: 28 days; reproduction.
The test system of series [2] is Typhlodromus pyri. Nature of the series: LR50; higher = less toxic. The following applies: not reported; mortality.
In series [3] the test system is Tagia sp. The note with it: chronic/long-term; duration: 56 days; other.
Series [4] relates to Colinus virginianus. The following applies: reproduction developmental; duration: 22 weeks.
For series [5], the system named is Apis mellifera. The following applies: acute, mortality.
The subject of series [6] is Daphnia magna. The following applies: chronic/long-term; duration: 21 days.
Series [7] deals with Rattus norvegicus.
In series [8] the test system is Oncorhynchus mykiss. The following applies: acute; mortality.
The test system of series [9] is Mus musculus. The following applies: chronic; duration: 18 months; histopathology: neoplastic.
The subject of series [10] is Bibionidae. The note with it: chronic/long-term; duration: 28 days.
For series [11], the system named is Pimephales promelas. The note with it: chronic/long-term.

Some results are limits rather than exact numbers.

A word on the LOAEL: it is the lowest dose or exposure tested at which an adverse effect was seen. One may read the NOAEL as the highest dose or exposure tested at which no adverse effect was seen.

The compound `CC(=O)C(C)(C)NC(=O)c1cc(Cl)cc(Cl)c1` [Benzamide, 3,5-dichloro-N-(1,1-dimethyl-2-oxopropyl)-] had an NOEC in series [1] of 20 mg/kg.

Compound `C#CC(C)(C)NC(=O)c1cc(Cl)cc(Cl)c1` [Propyzamide] came in with an LR50 in series [2] of 1890 g/ha. Besides, the NOEC in series [3] was 3.3 mg/kg; in series [1], 1.4 mg/kg; in series [6], 0.6 mg/L; in series [10], 0.34 mg/L; in [11], 0.224 mg/L. In series [4], this compound registered an NOEL of 30.9 mg/kg-day. Moreover, the LD50 in series [5] (dermal) was above 100 µg/piece; in series [5] (oral, unspecified), above 100 µg/piece; in series [8], above 4.7 mg/L. For the same compound, the LOAEL in [7] (acute, neurology) is 40 mg/kg-day. Moreover, the NOAEL in series [7] (reproduction developmental, M, body weight) was 12.1 mg/kg-day; in series [7] (subchronic, duration: 90 days, oral, organ weight) it was 4.5 mg/kg-day; in [9], 5 mg/kg-day.
